Experiment: xn = mol fraction of the nth substance listed
Conditions: Liquid, Pycnometric method

Cn1ccnc1 [1-methylimidazole] + O=C=O
mass density [kg/m3]
Conditions	332.4 K	337.4 K
13050 kPa, x1 = 0.0102	–	568
13150 kPa, x1 = 0.0102	–	576
13270 kPa, x1 = 0.0102	–	584
13350 kPa, x1 = 0.0102	600	–
13370 kPa, x1 = 0.0102	–	593
13490 kPa, x1 = 0.0102	–	601
13550 kPa, x1 = 0.0247	668	–
13560 kPa, x1 = 0.0102	612	–
13620 kPa, x1 = 0.0102	–	610
13730 kPa, x1 = 0.0247	675	–
13770 kPa, x1 = 0.0102	–	619
13790 kPa, x1 = 0.0102	623	–
13890 kPa, x1 = 0.0247	681	–
13910 kPa, x1 = 0.0102	–	628
13960 kPa, x1 = 0.0247	684	–
14040 kPa, x1 = 0.0102	636	–
14080 kPa, x1 = 0.0102	–	638
14140 kPa, x1 = 0.0247	690	–
14240 kPa, x1 = 0.0102	–	648
14320 kPa, x1 = 0.0102	649	–
14330 kPa, x1 = 0.0247	696	–
14430 kPa, x1 = 0.0102	–	658
14490 kPa, x1 = 0.0247	–	650
14520 kPa, x1 = 0.0247	703	–
14560 kPa, x1 = 0.0247	–	653
14630 kPa, x1 = 0.0102	–	669
14640 kPa, x1 = 0.0102	663	–
14660 kPa, x1 = 0.0247	–	658
14740 kPa, x1 = 0.0247	709	–
14780 kPa, x1 = 0.0247	–	662
14850 kPa, x1 = 0.0102	–	680
14900 kPa, x1 = 0.0247	–	666
14970 kPa, x1 = 0.0247	716	–
15020 kPa, x1 = 0.0247	–	671
15030 kPa, x1 = 0.0102	677	–
15080 kPa, x1 = 0.0102	–	691
15140 kPa, x1 = 0.0247	–	675
15220 kPa, x1 = 0.0247	723	–
15270 kPa, x1 = 0.0247	–	680
15350 kPa, x1 = 0.0102	–	703
15420 kPa, x1 = 0.0247	–	684
15450 kPa, x1 = 0.0487	779	–
15480 kPa, x1 = 0.0102	692	–
15480 kPa, x1 = 0.0247	730	–
15560 kPa, x1 = 0.0247	–	689
15710 kPa, x1 = 0.0487	784	–
15730 kPa, x1 = 0.0247	–	693
15740 kPa, x1 = 0.0102	–	719
15750 kPa, x1 = 0.0247	737	–
15880 kPa, x1 = 0.0247	–	698
15920 kPa, x1 = 0.0487	789	–
15960 kPa, x1 = 0.0247	742	–
15970 kPa, x1 = 0.0102	707	–
16050 kPa, x1 = 0.0247	–	703
16080 kPa, x1 = 0.0102	–	732
16130 kPa, x1 = 0.0487	794	–
16190 kPa, x1 = 0.0247	747	–
16230 kPa, x1 = 0.0247	–	708
16260 kPa, x1 = 0.0487	797	–
16390 kPa, x1 = 0.0487	799	–
16410 kPa, x1 = 0.0247	–	713
16430 kPa, x1 = 0.0247	752	–
16450 kPa, x1 = 0.0102	–	745
16520 kPa, x1 = 0.0487	801	–
16570 kPa, x1 = 0.0102	723	–
16600 kPa, x1 = 0.0487	–	768
16610 kPa, x1 = 0.0247	–	717
16640 kPa, x1 = 0.0487	–	769
16650 kPa, x1 = 0.0487	804	–
16720 kPa, x1 = 0.0247	758	–
16730 kPa, x1 = 0.0487	–	770
16830 kPa, x1 = 0.0487	806	–
16840 kPa, x1 = 0.0102	–	759
16850 kPa, x1 = 0.0487	–	773
16890 kPa, x1 = 0.0247	–	724
16910 kPa, x1 = 0.0247	762	–
16960 kPa, x1 = 0.0487	–	775
16970 kPa, x1 = 0.0487	809	–
17070 kPa, x1 = 0.0487	–	777
17090 kPa, x1 = 0.0247	766	–
17130 kPa, x1 = 0.0487	811	–
17170 kPa, x1 = 0.0487	–	780
17190 kPa, x1 = 0.0247	–	731
17260 kPa, x1 = 0.0102	740	–
17260 kPa, x1 = 0.0487	814	–
17290 kPa, x1 = 0.0487	–	782
17300 kPa, x1 = 0.0102	–	773
17300 kPa, x1 = 0.0247	770	–
17410 kPa, x1 = 0.0487	–	784
17440 kPa, x1 = 0.0487	817	–
17450 kPa, x1 = 0.0247	–	737
17510 kPa, x1 = 0.0247	774	–
17520 kPa, x1 = 0.1024	890	–
17560 kPa, x1 = 0.0487	–	787
17590 kPa, x1 = 0.0487	819	–
17680 kPa, x1 = 0.0247	–	742
17680 kPa, x1 = 0.0487	–	789
17680 kPa, x1 = 0.1024	892	–
17730 kPa, x1 = 0.1024	892	–
17750 kPa, x1 = 0.0487	821	–
17800 kPa, x1 = 0.0247	779	–
17800 kPa, x1 = 0.1024	893	–
17810 kPa, x1 = 0.0487	–	791
17820 kPa, x1 = 0.0102	–	788
17890 kPa, x1 = 0.1024	894	–
17920 kPa, x1 = 0.0487	824	–
17940 kPa, x1 = 0.0487	–	794
17960 kPa, x1 = 0.1024	895	–
18040 kPa, x1 = 0.1024	896	–
18060 kPa, x1 = 0.0102	757	–
18060 kPa, x1 = 0.0247	–	749
18090 kPa, x1 = 0.0487	–	797
18090 kPa, x1 = 0.1024	896	–
18120 kPa, x1 = 0.0487	827	–
18150 kPa, x1 = 0.1024	897	–
18200 kPa, x1 = 0.0102	–	798
18200 kPa, x1 = 0.1024	897	–
18210 kPa, x1 = 0.0487	–	799
18250 kPa, x1 = 0.1024	898	–
18280 kPa, x1 = 0.0487	829	–
18310 kPa, x1 = 0.1024	899	–
18350 kPa, x1 = 0.0487	–	800
18400 kPa, x1 = 0.1024	900	–
18470 kPa, x1 = 0.1024	900	–
18480 kPa, x1 = 0.0487	832	–
18510 kPa, x1 = 0.0487	–	804
18530 kPa, x1 = 0.1024	901	–
18580 kPa, x1 = 0.1024	901	–
18610 kPa, x1 = 0.0102	–	808
18620 kPa, x1 = 0.0102	769	–
18620 kPa, x1 = 0.1024	902	–
18670 kPa, x1 = 0.0487	835	806
18690 kPa, x1 = 0.1024	902	–
18750 kPa, x1 = 0.1024	903	–
18810 kPa, x1 = 0.0102	–	813
18820 kPa, x1 = 0.0487	–	809
18860 kPa, x1 = 0.0102	773	–
18860 kPa, x1 = 0.0487	837	–
18860 kPa, x1 = 0.1024	904	–
18940 kPa, x1 = 0.1024	905	–
18990 kPa, x1 = 0.0487	–	811
19040 kPa, x1 = 0.0487	840	–
